Source: PMC10447463, “Data-mining unveils structure–property–activity correlation of viral infectivity enhancing self-assembling peptides” (Nature Communications, 2023)
Like-named read-outs stand apart in the source and are kept apart here.

Key:
[1] = tested on: HIV-1 infection of TZM-bl cells; test: HIV-1 infectivity enhancement assay, β-galactosidase luminescence; assay type: cell-based; details: for Rel-EFC / Log10 Infection Rel EFC: 1.3 µM peptide; for Rel-EFC: infection relative to EF-C (QCKIKQIINMWQ = 1); for Log10 Infection Rel EFC: log10 of infection relative to EF-C; for Log Infectivity: Log10 infection relative to EF-C, TZM-bl cells, asymmetric std dev errors; for Log10 Infection Rel EF-C: HIV-1 infection of TZM-bl cells; for Abs. Inf.: absolute infection signal, HIV-1 on TZM-bl cells, β-galactosidase luminescence; for Log10 Inf. rel. to EF-C: log10 of HIV-1 infection of TZM-bl cells relative to EF-C (EF-C = 0); for Log10 of Rel to EFC (Feb2021): Log10 of infection relative to EF-C, all peptides of FigS16
[2] = Turbidity, derived count rate of scattered light; assay type: physicochemical; details: for Count Rate / kcps: derived count rate of scattered light at 633 nm, 173°, from zeta-potential measurement, 0.1 mg/mL in 1 mM KCl after 1 d at 1 mg/mL in PBS, turbidity / microscopic aggregation, mean of triplicate
How it was run: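 Samples: 1 mg/mL in PBS pH 7.4 (from DMSO), 1 d at RT, then diluted in 1 mM KCl immediately before measurement. Triplicates, two independent runs averaged.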

[3] = assay type: physicochemical; design: key to Fibril / Fibril Formation / TEM 2cat / Fibril: 1 = fibrils present; 0 non-fibrillar structures; details: for Fibril / Fibril Formation: 1 mg/mL, uranyl acetate stain, qualitative
[4] = Fig. S7 panel A (plotted against β-sheet content)
[5] = Fig. S7 panel B (plotted against CR), rounded to two decimals
[6] = Log10 of infection rate relative to EF-C, Figure 3A source data
[7] = infection rate relative to EF-C, log10, data of Figure 2D
[8] = infection rate relative to EF-C, log10, source data of Figure 2C
[9] = Log10 of derived count rate of scattered light (turbidity)
[10] = turbidity, Log10 of derived count rate of scattered light, Figure 3A source data
[11] = turbidity, log10 of derived count rate of scattered light
[12] = FigS12 panel A, fibril category by TEM
[13] = TEM, 1 = fibrils present, 0 = non-fibrillar
[14] = TEM, 1 = fibrils present, 0 = non-fibrillar structures
[15] = category: fibrils present or non-fibrillar
[16] = log10 of derived count rate of scattered light (turbidity)

| Substance | Rel-EFC [1] | Log10 Infection Rel EFC [1] | Log Infectivity [1, 4] | Log Infectivity [1, 5] | Log10 Infection Rel EF-C [1, 6] | Log10 Infection Rel EF-C [1, 7] | Log10 Infection Rel EF-C [1, 8] | Abs. Inf. [1] | Log10 Inf. rel. to EF-C [1] | Log10 Count Rate [2, 9] | Count Rate / kcps [2] | Log10 Count Rate [2, 10] | Log10 Count Rate [2, 11] | TEM 2cat ([3]; Fig S10 panel D) | Fibril ([3]; Fig S10 panel E) | TEM 2cat [3, 12] | Fibril ([3]; FigS12 panel B, TEM) | Fibril / Fibril Formation ([3]; TEM) | Fibril [3, 13] | Fibril [3, 14] | other results |
| --- | --- | --- | --- | --- | --- | --- | --- | --- | --- | --- | --- | --- | --- | --- | --- | --- | --- | --- | --- | --- | --- |
| HGEHGEHGE | 0,02 | -1,72 | -1.72 | -1.72 | -1.72 | -1.72 | -1.72 | 360 | -1.72 | 2.532 | 340 kcps | 2.532 | 2.532 | 0 | 0 | 0 | 0 | 0 | 0 | 0 | – |
| NMWQKIKIQI | 0,21 | -0,69 | -0.6877 | – | -0.69 | -0.6877 | -0.6877 | – | -0.6877 | 4.001 | 10024 kcps | 4.001 | 4.001 | 1 | – | – | – | 1 | 1 | 1 | Log10 of Rel to EFC (Feb2021) [1]: -0.69; TEM 2cat [3, 15]: 1 |
| KNERIKNERI | 0,01 | -1,89 | -1.888 | -1.89 | -1.89 | -1.888 | -1.888 | 143.3 | -1.888 | 2.508 | 322 kcps | 2.508 | 2.508 | 0 | 0 | 0 | 0 | 0 | 0 | 0 | – |
| HGDKCHGDKC | 0,01 | -1,99 | -1.991 | -1.99 | -1.99 | -1.991 | -1.991 | 263.3 | -1.991 | 1.095 | 12 kcps | 1.095 | 1.095 | 0 | 0 | 0 | 0 | 0 | 0 | 0 | – |
| KIKIQINMWA | 0,69 | -0,16 | -0.1642 | – | -0.16 | -0.1642 | -0.1642 | – | -0.1642 | 3.042 | 1101 kcps | 3.042 | 3.042 | 1 | – | – | – | 1 | 1 | 1 | Log10 of Rel to EFC (Feb2021) [1]: -0.16; TEM 2cat [3, 15]: 1 |
| HHHHEIEIEIEI | 0,03 | -1,53 | -1.534 | – | -1.53 | -1.534 | -1.534 | – | – | 2.014 | 103 kcps | 2.014 | – | 0 | – | 0 | 0 | 0 | 0 | 0 | Log10 Count Rate [2, 16]: 2.014 |
| CEFEFQF | 0,01 | -2,28 | -2.283 | – | -2.28 | -2.283 | -2.283 | – | – | 2.565 | 367 kcps | 2.565 | – | 1 | – | 1 | 1 | 1 | 1 | 1 | Log10 Count Rate [2, 16]: 2.565 |
| PPFHPPPFHP | 0,02 | -1,75 | -1.751 | – | -1.75 | -1.751 | -1.751 | 263.3 | -1.751 | 1.772 | 59 kcps | 1.772 | 1.772 | 0 | – | 0 | 0 | 0 | 0 | 0 | – |
| KKFQKKFQ | 0,03 | -1,54 | -1.545 | – | -1.54 | -1.545 | -1.545 | 423.3 | -1.545 | 1.867 | 74 kcps | 1.867 | 1.867 | 0 | – | 0 | 0 | 0 | 0 | 0 | – |
| CRFRFQF | 0,34 | -0,46 | -0.4635 | -0.46 | -0.46 | -0.4635 | -0.4635 | 7508 | -0.4635 | 2.592 | 391 kcps | 2.592 | 2.592 | 1 | 1 | – | – | 1 | 1 | 1 | Log10 of Rel to EFC (Feb2021) [1]: -0.46; TEM 2cat [3, 15]: 1 |
